Measurements: patent US20220119456A1, “ANTI-SARS-COV-2 FUSION PEPTIDES” (KING FAISAL UNIVERSITY, priority 2020, published 2022)
Like-named read-outs stand apart in the source and are kept apart here. Where a SMILES comes first, the peptide text is derived from it.

Legend:
[1] = tested on: SARS-CoV-2 Spike-mediated cell-cell fusion
SARS-CoV-2 = conditions: for reduction in SARS-CoV-2 plaques formation: 10 μM peptide, Vero E6 cells
[2] = tested on: SARS-CoV-2 S pseudotyped VSV viral particles
[3] = tested on: SARS-CoV-2 S pseudotyped VSV viral particles; remark: listed apart in the source
[4] = tested on: SARS-CoV-2 S pseudotyped VSV viral particles; remark: listed apart in the source
[5] = S pseudotyped VSV viral particles

Structure (SMILES) | IC50 [1] [nM] | IC50 (SARS-CoV-2) [nM] | reduction in SARS-CoV-2 plaques formation (SARS-CoV-2) | IC50 [2] [nM] | inhibition against the infection through the endocytosis pathway in VeroE6 cells [3] [%] | IC50 [3, 5] [nM] | inhibition of TMPRSS2-dependent pseudovirus infection through plasma membrane [4] | IC50 [4, 5] [nM]
CC[C@H](C)[C@H](NC(=O)CNC(=O)[C@H](CCCNC(=N)N)NC(=O)[C@@H](NC(=O)[C@H](CCC(N)=O)NC(=O)[C@H](CCCNC(=N)N)NC(=O)[C@H](CC(C)C)NC(=O)[C@H](CCCNC(=N)N)NC(=O)[C@@H](N)Cc1c[nH]cn1)[C@@H](C)CC)C(=O)N[C@@H](CCCNC(=N)N)C(=O)N[C@@H](C)C(=O)N[C@@H](CCCNC(=N)N)C(=O)N[C@H](C(=O)N[C@H](C(=O)N[C@@H](CCC(N)=O)C(=O)N[C@H](C(=O)N[C@@H](CCC(N)=O)C(=O)N[C@@H](CCCCN)C(=O)N[C@@H](CCC(=O)O)C(=O)N[C@H](C(=O)N[C@@H](Cc1c[nH]c2ccccc12)C(=O)N[C@@H](CCCNC(=N)N)C(=O)N[C@@H](CC(C)C)C(=O)N[C@@H](CC(N)=O)C(=O)N[C@@H](CCC(=O)O)C(=O)N[C@H](C(=O)N[C@@H](C)C(=O)N[C@@H](CCCCN)C(=O)N[C@@H](CC(C)C)C(=O)N[C@@H](CC(C)C)C(=O)N[C@@H](CC(N)=O)C(=O)N[C@@H](CCC(=O)O)C(=O)N[C@@H](CO)C(=O)N[C@@H](CC(C)C)C(=O)N[C@H](C(=O)N[C@@H](Cc1ccc(O)cc1)C(=O)N[C@@H](CC(C)C)C(=O)N[C@@H](CCC(N)=O)C(=O)N[C@@H](CCC(=O)O)C(=O)O)[C@@H](C)CC)C(C)C)[C@@H](C)CC)[C@@H](C)CC)C(C)C)C(C)C [#125] (H-HRLRQIRGIRARVVQIQKEIWRLNEVAKLLNESLIYLQE-OH) | 4400 | 460 | 75% |  |  |  |  | 
CC[C@H](C)[C@H](NC(=O)CNC(=O)[C@H](CO)NC(=O)[C@@H](NC(=O)[C@H](CC(=O)O)NC(=O)CNC(=O)[C@H](CC(C)C)NC(=O)[C@@H](NC(=O)[C@@H](N)Cc1c[nH]cn1)C(C)C)[C@@H](C)CC)C(=O)N[C@@H](CC(N)=O)C(=O)N[C@@H](C)C(=O)N[C@@H](CO)C(=O)N[C@H](C(=O)N[C@H](C(=O)N[C@@H](CCC(N)=O)C(=O)N[C@H](C(=O)N[C@@H](CCC(N)=O)C(=O)N[C@@H](CCCCN)C(=O)N[C@@H](CCC(=O)O)C(=O)N[C@H](C(=O)N[C@@H](CC(=O)O)C(=O)N[C@@H](CCCNC(=N)N)C(=O)N[C@@H](CC(C)C)C(=O)N[C@@H](CC(N)=O)C(=O)N[C@@H](CCC(=O)O)C(=O)N[C@H](C(=O)N[C@@H](C)C(=O)N[C@@H](CCCCN)C(=O)N[C@@H](CC(N)=O)C(=O)N[C@@H](CC(C)C)C(=O)N[C@@H](Cc1c[nH]cn1)C(=O)N[C@@H](CCC(=O)O)C(=O)N[C@@H](CO)C(=O)N[C@@H](CC(C)C)C(=O)N[C@H](C(=O)N[C@@H](Cc1ccc(O)cc1)C(=O)N[C@@H](CC(C)C)C(=O)N[C@@H](CCC(N)=O)C(=O)N[C@@H](CCC(=O)O)C(=O)O)[C@@H](C)CC)C(C)C)[C@@H](C)CC)[C@@H](C)CC)C(C)C)C(C)C [#121] | 720 |  | approximately 15% | 160 | ≤ 38 | > 10000 | strong inhibition | < 1000
